Experimental data reported in paper PMC8469897, “Transcriptomic Characterization of Odorant Binding Proteins in Cacia cretifera thibetana and Their Association with Different Host Emitted Volatiles” (Insects, 2021).

Assays:
[1] = biological target: CcreOBP6; assay: Fluorescence competitive binding assay with 1-NPN probe, CcreOBP6; set-up: species or system Cacia cretifera thibetana
Description: (§1) The binding affinities of both CcreOBP6 and CcreOBP10 proteins with 20 odor volatiles were determined. The CcreOBP6 and CcreOBP10 proteins from prokaryotic cells were purified by Ni affinity chromatography. Then, 50 mM Tris-HCL buffer solution (pH = 7.4) was prepared, and N-phenyl-1-naphthylamine (1-NPN) was used as a fluorescent probe. For chromatography, the methanol was used as a solvent for fluorescent probe 1-NPN as well as for 20 odor standard volatile samples dissolved in solvent to make a 1 mM solution. These samples were added to a 96 Micro Well TM microtiter plate (NunclonTM) while the multifunctional microplate reader (VARIOSKAN FLASH) excitation light wavelength was set to 337 nm. The scanning wavelength was between 370 to 550 nm, and both excitation and emission slits were set to 5 nm. To determine the CcreOBP6 and CcreOBP10 protein binding constant with the fluorescent probe 1-NPN, a solution was prepared with CcreOBP6 and CcreOBP10 proteins in Tris-HCL (pH = 7.4) buffer with a 2 μM final concentration. The successive concentrations of 2, 4, 6, 8, 12, 16, and 20 μM of 1-NPN were added, and the fluorescence intensity was recorded at the maximum emission wavelength (Em = 410 nm) for each time, and the experiment was repeated three times. The formula for the protein and odor standard dissociation constant was calculated by: Ki = [IC 50]/(1 + [1-NPN]/K 1-NPN) where IC 50 denotes the odor standard concentrations as the fluorescence intensity value was decreased by half, [1-NPN] is the unbound 1-NPN prob concentration, and K 1-NPN is the protein and 1-NPN probe binding constant.

[2] = tested on: CcreOBP10; assay: Fluorescence competitive binding assay with 1-NPN probe, CcreOBP10; set-up: species or system Cacia cretifera thibetana
Description: as §1

[3] = tested on: males and females; set-up: method as in PMID 23564737; settings: olfactometer, lower dose; cited from earlier work
[4] = Ki = [IC50]/(1 + [1-NPN]/K1-NPN)
[5] = competitive displacement of 1-NPN
[6] = odor concentration at which 1-NPN fluorescence intensity is halved
[7] = 2 μM protein, Tris-HCl pH 7.4, Em 410 nm, read-out: dissociation constant with fluorescent probe 1-NPN

Row | Molecule | binding with CcreOBP6 [1, 5] | relative fluorescence value [2, 5] | binding with CcreOBP10 [2, 5] | further results
1 | CCC/C=C/C=O [trans-2-hexenal] | strong binding affinities | below 50% | strong binding affinities | Ki [1, 4]: 12.9 µM; IC50 [1, 6]: 16.2 µM; repellent activity [3]: good repellent activity
2 | c1ccc(Nc2cccc3ccccc23)cc1 [1-NPN, N-phenyl-1-naphthylamine, reference compound] | – | – | – | Kd [1, 7]: 7.09 µM; Kd [2, 7]: 6.18 µM
3 | CC(C)COC(=O)c1ccccc1C(=O)OCC(C)C [di-isobutyl phthalate] | – | – | – | drop in the relative fluorescence value [2, 5]: 6.4%
4 | phytol | did not show any binding | – | showed binding | –
5 | C=C1CC/C=C(\C)CC[C@@H]2[C@@H]1CC2(C)C [1-caryophyllene] | – | below 50% | – | –
6 | CC12CCC(CC1)C(C)(C)O2 [eucalyptol] | – | – | – | relative fluorescence value [1, 5]: 10.84%

Second part, led by results:

Row | binding with CcreOBP6 [1, 5] | relative fluorescence value [2, 5] | Molecule | binding with CcreOBP10 [2, 5] | further results
7 | did not show any binding | – | C=C1CC[C@H]2O[C@]2(C)CC[C@@H]2[C@@H]1CC2(C)C [caryophyllene oxide] | – | –
8 | did not show any binding | – | CCCCCC=O [n-hexanal] | showed binding | –
9 | – | below 50% | C=CC(=C)CCC=C(C)C [Myrcene] | – | Ki [2, 4]: 13.8 µM; IC50 [2, 6]: 17.9 µM
10 | did not show any binding | – | C1=CCCCC=CCCC1 [1,6-cyclodecadiene] | – | –
